{
  "source": "patent US8648074B2",
  "about": "“Substituted octahydropyrrolo[1,2-a]pyrazine sulfonamides as calcium channel blockers” (AbbVie Inc., priority 2011, dated 2014)",
  "data": [
    {"tested_on": "Chronic constriction injury (CCl), a model of neuropathic pain", "assay": "In vivo assessment of analgesic effect against neuropathic pain (Bennett model, chronic constriction injury; tactile allodynia by von Frey filaments)", "details": "Rattus norvegicus, po, 1 h; male Sprague Dawley rats, CCI; 10 mg/kg orally; mechanical allodynia 60 minutes following administration; percentage of maximum possible effect from log g PWT; read-out: % MPE", "experimental": "Animals were prepared for testing, by use of a surgical procedure that induces neuropathic pain in one paw. IACUC guidelines for rodent survival surgery were followed. All surgical procedures were conducted on a clean, uncluttered surgical station. The area was wiped with a 70% ethanol solution before and after use. All instruments were sterilized by either autoclave or chemical sterilant (such as 2% glutaraldehyde>10 hours). Surgeons wore sterile gloves (for the initial procedure), clean lab coat or scrubs, hairnet or cap, and a half-mask respirator (when not working under a hood). Surgeons thoroughly washed their hands prior to donning sterile gloves. Gloves were disinfected in-between animals by cleansing with povidone iodine, chlorhexidine or 70% alcohol for at least 30 seconds. If multiple surgeries were performed, the instruments were cleaned and sterilized between procedures with hot glass beads (>10 seconds). To prevent thermal or chemical burns, the instruments were cooled by rinsing in sterile saline before use. Male, Sprague Dawley® rats, 175-200 g were used for surgeries. To minimize post-operative dehydration/maintain blood volume during the surgery, warmed sterile saline or Lactate Ringers solution at 10-15 mL/kg was administered subcutaneously immediately before or after surgery. This facilitated better renal function and presumably anesthesia product excretion post surgery. For all surgical procedures, anesthesia was induced with 4-5% isoflurane. Anesthesia was maintained during surgery with 1-3% isoflurane. Following induction, the surgical site was carefully shaved and the exposed area was aseptically prepared with povidone-iodine scrub solution and 70% ethanol 2-3 times. Chronic constriction injury (CCl), a model of neuropathic pain, was produced by following the method of Bennett and Xie (Bennett, G, et al. Pain, 1988, 33, 87-107). After site sterilization and anesthetic procedures outline above were completed, a 1.5 cm incision was made at the mid-thigh level to expose the biceps femoris and gluteous superficialis (right side), which were then separated by blunt dissection. The common sciatic nerve was exposed, isolated, and loosely ligated by four 5-0 chromic gut ligatures with <1 mm spacing between each. The surgical site was closed in layers—muscle was closed with 6.0 absorbable sutures, and the skin closed with wound clips. Animals were allowed to recover on a warming plate and were returned to their home cages when fully ambulatory. Animals were not be used for testing until at least 10 days following surgery. To measure mechanical sensitivity, tactile allodynia was measured using calibrated von Frey filaments (Stoelting, Wood Dale, Ill.) as described by Chaplan et al. (Chaplan S., et al. J of Neuroscience Methods 1994, 53, 55-63). Filament strengths used were: 0.4, 0.6, 1.0, 2, 4, 6, 8, and 15 g. Rats were placed into inverted individual plastic containers (20×12.5×20 cm) on top of a suspended wire mesh grid, and acclimated to the test chambers for at least 20 minutes. Filaments were applied perpendicular to the mid-plantar paw surface with enough force to cause slight buckling and held in place for 6-8 seconds. Positive responses included an abrupt withdrawal of the paw from the stimulus or flinching behavior immediately following removal of the stimulus. The maximum force applied was 15 g. The 50% paw withdrawal threshold (PWT) was calculated in grams (g) using the up-down method of Dixon (Dixon W. Ann Rev Pharmacol Toxicol 1980, 20, 441-462). […] All compounds were orally administered in at a dose of 10 mg/kg in 10% dimethyl sulfoxide/polyethylene glycol at a volume of 2.0 mL/kg, and mechanical allodynia was determined 60 minutes following compound administration. […]", "units": {"inhibition in vivo at 10 mg/kg": "%"}, "values": [
      {"compound": "O=S(=O)(c1cccc(C(F)(F)F)c1)N1CCN2C[C@H](Oc3cnc(C4CC4)cn3)C[C@H]2C1", "note": "[Example 21, (7R,8aS)-7-[(5-cyclopropylpyrazin-2-yl)oxy]-2-{[3-(trifluoromethyl)phenyl]-sulfonyl}octahydropyrrolo[1,2-a]pyrazine]", "inhibition in vivo at 10 mg/kg": 43},
      {"compound": "O=S(=O)(c1ccc(C(F)(F)F)cc1)N1CCN2C[C@H](Oc3cnc(C4CC4)cn3)C[C@H]2C1", "note": "[Example 25, (7R,8aS)-7-[(5-cyclopropylpyrazin-2-yl)oxy]-2-{[4-(trifluoromethyl)-phenyl]sulfonyl}octahydropyrrolo[1,2-a]pyrazine]", "inhibition in vivo at 10 mg/kg": 42},
      {"compound": "O=S(=O)(c1cccc(C(F)(F)F)c1)N1CCN2C[C@H](Oc3ccc(C4CC4)nn3)C[C@H]2C1", "note": "[Example 44, (7R,8aS)-7-[(6-cyclopropylpyridazin-3-yl)oxy]-2-{[3-(trifluoromethyl)-phenyl]sulfonyl}octahydropyrrolo[1,2-a]pyrazine]", "inhibition in vivo at 10 mg/kg": 40},
      {"compound": "O=S(=O)(c1cccc(C(F)(F)F)c1)N1CCN2C[C@@H](Oc3cnc(C4CC4)cn3)C[C@H]2C1", "note": "[Example 49, (7S,8aS)-7-[(5-cyclopropylpyrazin-2-yl)oxy]-2-{[3-(trifluoromethyl)-phenyl]sulfonyl}octahydropyrrolo[1,2-a]pyrazine]", "inhibition in vivo at 10 mg/kg": 19},
      {"compound": "O=S(=O)(c1ccc(C(F)(F)F)cc1)N1CCN2C[C@@H](Oc3cnc(C4CC4)cn3)C[C@H]2C1", "note": "[Example 50, (7S,8aS)-7-[(5-cyclopropylpyrazin-2-yl)oxy]-2-{[4-(trifluoromethyl)phenyl]-sulfonyl}octahydropyrrolo[1,2-a]pyrazine]", "inhibition in vivo at 10 mg/kg": 25},
      {"compound": "O=S(=O)(c1cc(F)cc(C(F)(F)F)c1)N1CCN2C[C@H](Oc3cnc(C4CC4)cn3)C[C@H]2C1", "note": "[Example 51, (7R,8aS)-7-[(5-cyclopropylpyrazin-2-yl)oxy]-2-{[3-fluoro-5-(trifluoromethyl)phenyl]sulfonyl}octahydropyrrolo[1,2-a]pyrazine]", "inhibition in vivo at 10 mg/kg": 32},
      {"compound": "O=S(=O)(c1ccc(F)c(C(F)(F)F)c1)N1CCN2C[C@H](Oc3cnc(C4CC4)cn3)C[C@H]2C1", "note": "[Example 52, (7R,8aS)-7-[(5-cyclopropylpyrazin-2-yl)oxy]-2-{[4-fluoro-3-(trifluoromethyl)phenyl]sulfonyl}octahydropyrrolo[1,2-a]pyrazine]", "inhibition in vivo at 10 mg/kg": 38},
      {"compound": "O=S(=O)(c1ccc(C(F)(F)F)cc1)N1CCN2C[C@@H](Oc3cnc(C4CC4)cn3)C[C@@H]2C1", "note": "[Example 54, (7S,8aR)-7-[(5-cyclopropylpyrazin-2-yl)oxy]-2-{[4-(trifluoromethyl)phenyl]-sulfonyl}octahydropyrrolo[1,2-a]pyrazine]", "inhibition in vivo at 10 mg/kg": 34},
      {"compound": "O=S(=O)(c1ccc(F)cc1F)N1CCN2C[C@H](Oc3cnc(C4CC4)cn3)C[C@H]2C1", "note": "[Example 62, (7R,8aS)-7-[(5-cyclopropylpyrazin-2-yl)oxy]-2-[(2,4-difluorophenyl)-sulfonyl]octahydropyrrolo[1,2-a]pyrazine]", "inhibition in vivo at 10 mg/kg": 29},
      {"compound": "N#Cc1cc(C(F)(F)F)cc(S(=O)(=O)N2CCN3C[C@H](Oc4cnc(C5CC5)cn4)C[C@H]3C2)c1", "note": "[Example 64, 3-{[(7R,8aS)-7-[(5-cyclopropylpyrazin-2-yl)oxy]hexahydropyrrolo[1,2-a]-pyrazin-2(1H)-yl]sulfonyl}-5-(trifluoromethyl)benzonitrile]", "inhibition in vivo at 10 mg/kg": 37},
      {"compound": "O=S(=O)(c1ccc(C(F)(F)F)cn1)N1CCN2C[C@H](Oc3cnc(C4CC4)cn3)C[C@H]2C1", "note": "[Example 67, (7R,8aS)-7-[(5-cyclopropylpyrazin-2-yl)oxy]-2-{[5-(trifluoromethyl)pyridin-2-yl]sulfonyl}octahydropyrrolo[1,2-a]pyrazine]", "inhibition in vivo at 10 mg/kg": 5},
      {"compound": "N#Cc1ccc(O[C@@H]2C[C@H]3CN(S(=O)(=O)c4cccc(C(F)(F)F)c4)CCN3C2)cn1", "note": "[Example 86, 5-{[(7R,8aS)-2-{[3-(trifluoromethyl)phenyl]sulfonyl}octahydropyrrolo[1,2-a]pyrazin-7-yl]oxy}pyridine-2-carbonitrile]", "inhibition in vivo at 10 mg/kg": 0}
    ]}
  ]
}
